Results as given in ChEMBL document CHEMBL4507324 (2021).

What was measured:
[1] = target: Serine/threonine-protein kinase Nek1 (Homo sapiens) (UniProt Q96PY6); settings: Compound concentration 100.0 nM
[2] = target: Mitogen-activated protein kinase 11 (Homo sapiens, UniProt Q15759); settings: Compound concentration 100.0 nM
[3] = target: Serine/threonine-protein kinase D2 (Homo sapiens) (UniProt Q9BZL6); settings: Compound concentration 100.0 nM
[4] = target: Calcium/calmodulin-dependent protein kinase kinase 1 (Homo sapiens) (UniProt Q8N5S9); settings: Compound concentration 100.0 nM
[5] = target: Mitogen-activated protein kinase 4 (Homo sapiens) (UniProt P31152); settings: Compound concentration 100.0 nM
[6] = target: Cyclin-dependent kinase 7 (Homo sapiens) (UniProt P50613); settings: Compound concentration 100.0 nM
[7] = target: Serine/threonine-protein kinase DCLK1 (Homo sapiens) (UniProt O15075); settings: Compound concentration 100.0 nM
[8] = target: Mitogen-activated protein kinase 14 (Homo sapiens) (UniProt Q16539); settings: Compound concentration 100.0 nM
[9] = target: Receptor-interacting serine/threonine-protein kinase 2 (Homo sapiens) (UniProt O43353); settings: Compound concentration 100.0 nM
[10] = target: Ribosomal protein S6 kinase alpha-5 (Homo sapiens) (UniProt O75582); settings: Compound concentration 100.0 nM
[11] = target: 3-phosphoinositide-dependent protein kinase 1 (Homo sapiens) (UniProt O15530); settings: Compound concentration 100.0 nM
[12] = target: Transient receptor potential cation channel subfamily M member 6 (Homo sapiens) (UniProt Q9BX84); settings: Compound concentration 100.0 nM
[13] = target: Cyclin-dependent kinase 9 (Homo sapiens) (UniProt P50750); settings: Compound concentration 100.0 nM
[14] = target: Calcium/calmodulin-dependent protein kinase type 1G (Homo sapiens) (UniProt Q96NX5); settings: Compound concentration 100.0 nM
[15] = target: LIM domain kinase 2 (Homo sapiens) (UniProt P53671); settings: Compound concentration 100.0 nM
[16] = target: Tyrosine-protein kinase ABL1 (Homo sapiens) (UniProt P00519); settings: Compound concentration 100.0 nM
[17] = target: Serine/threonine-protein kinase pim-2 (Homo sapiens) (UniProt Q9P1W9); settings: Compound concentration 100.0 nM
[18] = target: Cyclin-dependent kinase 11A (Homo sapiens) (UniProt Q9UQ88); settings: Compound concentration 100.0 nM
[19] = target: Kappa-type opioid receptor (Homo sapiens) (UniProt P41145); settings: Compound concentration 10.0 uM
[20] = target: 5-hydroxytryptamine receptor 6 (Homo sapiens) (UniProt P50406); settings: Compound concentration 10.0 uM
[21] = target: Muscarinic acetylcholine receptor M4 (Homo sapiens) (UniProt P08173); settings: Compound concentration 10.0 uM
[22] = target: Sigma non-opioid intracellular receptor 1 (Homo sapiens) (UniProt Q99720); settings: Compound concentration 10.0 uM
[23] = target: Beta-2 adrenergic receptor (Homo sapiens) (UniProt P07550); settings: Compound concentration 10.0 uM
[24] = target: 5-hydroxytryptamine receptor 2B (Homo sapiens) (UniProt P41595); settings: Compound concentration 10.0 uM
[25] = target: Alpha-1D adrenergic receptor (Homo sapiens) (UniProt P25100); settings: Compound concentration 10.0 uM
[26] = target: Beta-1 adrenergic receptor (Homo sapiens) (UniProt P08588); settings: Compound concentration 10.0 uM
[27] = target: Mu-type opioid receptor (Homo sapiens) (UniProt P35372); settings: Compound concentration 10.0 uM
[28] = target: D(1A) dopamine receptor (Homo sapiens) (UniProt P21728); settings: Compound concentration 10.0 uM
[29] = target: D(3) dopamine receptor (Homo sapiens) (UniProt P35462); settings: Compound concentration 10.0 uM
[30] = target: Histamine H4 receptor (Homo sapiens) (UniProt Q9H3N8); settings: Compound concentration 10.0 uM
[31] = target: GABA-A receptor; anion channel (Rattus norvegicus) (UniProt O09028+P15431+P18506+P18508+P19969+P20236+P23574+P23576+P28471+P28473+P30191+P62813+P63079+P63138+Q91ZM7+Q9ES14); settings: Compound concentration 10.0 uM
[32] = target: 5-hydroxytryptamine receptor 1D (Homo sapiens) (UniProt P28221); settings: Compound concentration 10.0 uM
[33] = target: D(1B) dopamine receptor (Homo sapiens) (UniProt P21918); settings: Compound concentration 10.0 uM
Rattus norvegicus = species: Rattus norvegicus; settings: Compound concentration 10.0 uM
[34] = target: Muscarinic acetylcholine receptor M3 (Homo sapiens) (UniProt P20309); settings: Compound concentration 10.0 uM
[35] = target: 5-hydroxytryptamine receptor 5A (Homo sapiens) (UniProt P47898); settings: Compound concentration 10.0 uM
[36] = target: Alpha-2A adrenergic receptor (Homo sapiens) (UniProt P08913); settings: Compound concentration 10.0 uM
[37] = target: Sodium-dependent dopamine transporter (Homo sapiens) (UniProt Q01959); settings: Compound concentration 10.0 uM
[38] = target: Alpha-2C adrenergic receptor (Homo sapiens) (UniProt P18825); settings: Compound concentration 10.0 uM
[39] = target: 5-hydroxytryptamine receptor 1B (Homo sapiens) (UniProt P28222); settings: Compound concentration 10.0 uM
[40] = target: 5-hydroxytryptamine receptor 7 (Homo sapiens) (UniProt P34969); settings: Compound concentration 10.0 uM
[41] = target: Delta-type opioid receptor (Homo sapiens) (UniProt P41143); settings: Compound concentration 10.0 uM
[42] = target: Sodium-dependent noradrenaline transporter (Homo sapiens) (UniProt P23975); settings: Compound concentration 10.0 uM
[43] = target: Histamine H1 receptor (Homo sapiens) (UniProt P35367); settings: Compound concentration 10.0 uM
[44] = target: Serine/threonine-protein kinase B-raf (Homo sapiens, UniProt P15056); assay: NanoBRET (SGC-Frankfurt) (BRAF)

Serine/threonine-protein kinase pim-2 (Homo sapiens), sequence (Q9P1W9 whole entry, looked up): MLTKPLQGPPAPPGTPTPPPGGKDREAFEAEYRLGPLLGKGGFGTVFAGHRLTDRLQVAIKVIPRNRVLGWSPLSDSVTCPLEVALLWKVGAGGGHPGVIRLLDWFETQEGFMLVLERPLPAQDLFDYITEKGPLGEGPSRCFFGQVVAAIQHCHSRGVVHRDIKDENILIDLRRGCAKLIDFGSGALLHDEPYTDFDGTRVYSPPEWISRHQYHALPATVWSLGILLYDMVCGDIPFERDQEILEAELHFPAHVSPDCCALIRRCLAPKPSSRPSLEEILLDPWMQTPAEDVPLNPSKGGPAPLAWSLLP
LIM domain kinase 2 (Homo sapiens), sequence (P53671 whole entry, looked up, the tested form may be a part): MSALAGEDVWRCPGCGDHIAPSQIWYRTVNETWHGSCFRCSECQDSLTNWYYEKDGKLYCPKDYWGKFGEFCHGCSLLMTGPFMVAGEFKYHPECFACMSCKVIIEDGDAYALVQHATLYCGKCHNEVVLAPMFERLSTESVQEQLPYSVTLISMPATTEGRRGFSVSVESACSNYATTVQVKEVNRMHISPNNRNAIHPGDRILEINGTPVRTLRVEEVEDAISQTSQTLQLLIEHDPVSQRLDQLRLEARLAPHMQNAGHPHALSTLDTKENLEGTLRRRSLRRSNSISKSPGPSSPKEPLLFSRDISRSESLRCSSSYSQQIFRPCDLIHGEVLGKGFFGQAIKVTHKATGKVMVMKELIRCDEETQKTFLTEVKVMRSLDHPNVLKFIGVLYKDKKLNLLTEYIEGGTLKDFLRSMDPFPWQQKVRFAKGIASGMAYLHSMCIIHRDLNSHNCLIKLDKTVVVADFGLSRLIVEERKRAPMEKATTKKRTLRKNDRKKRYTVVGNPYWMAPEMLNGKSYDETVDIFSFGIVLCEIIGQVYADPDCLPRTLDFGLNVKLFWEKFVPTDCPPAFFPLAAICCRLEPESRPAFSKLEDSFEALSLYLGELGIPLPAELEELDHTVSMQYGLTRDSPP
Calcium/calmodulin-dependent protein kinase type 1G (Homo sapiens), sequence (Q96NX5 whole entry, the tested form may be a part): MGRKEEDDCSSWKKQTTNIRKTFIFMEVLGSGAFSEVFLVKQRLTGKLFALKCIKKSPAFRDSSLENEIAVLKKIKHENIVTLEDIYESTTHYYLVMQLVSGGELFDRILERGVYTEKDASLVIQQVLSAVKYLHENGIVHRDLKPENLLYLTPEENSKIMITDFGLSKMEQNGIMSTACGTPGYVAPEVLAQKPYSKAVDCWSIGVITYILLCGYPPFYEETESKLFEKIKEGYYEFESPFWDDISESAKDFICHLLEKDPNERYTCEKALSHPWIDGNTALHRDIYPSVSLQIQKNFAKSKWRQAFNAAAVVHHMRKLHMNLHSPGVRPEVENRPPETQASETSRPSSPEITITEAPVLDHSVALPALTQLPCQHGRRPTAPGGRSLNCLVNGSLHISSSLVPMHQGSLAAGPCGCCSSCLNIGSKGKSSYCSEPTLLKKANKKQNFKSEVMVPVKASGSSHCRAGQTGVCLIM
Receptor-interacting serine/threonine-protein kinase 2 (Homo sapiens), sequence (O43353 whole entry): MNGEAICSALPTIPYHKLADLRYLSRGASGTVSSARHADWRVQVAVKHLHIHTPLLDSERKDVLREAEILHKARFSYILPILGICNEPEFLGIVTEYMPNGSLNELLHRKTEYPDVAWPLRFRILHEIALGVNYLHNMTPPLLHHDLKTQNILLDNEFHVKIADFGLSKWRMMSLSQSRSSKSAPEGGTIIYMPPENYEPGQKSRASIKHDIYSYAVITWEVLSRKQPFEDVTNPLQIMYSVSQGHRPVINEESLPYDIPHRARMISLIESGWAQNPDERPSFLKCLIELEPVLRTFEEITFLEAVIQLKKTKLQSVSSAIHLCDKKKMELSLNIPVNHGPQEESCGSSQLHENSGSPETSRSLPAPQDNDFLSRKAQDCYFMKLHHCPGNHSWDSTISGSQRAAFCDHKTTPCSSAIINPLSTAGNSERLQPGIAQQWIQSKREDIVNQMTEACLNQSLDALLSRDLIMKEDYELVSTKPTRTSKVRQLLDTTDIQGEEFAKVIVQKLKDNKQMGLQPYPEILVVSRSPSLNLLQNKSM
Cyclin-dependent kinase 11A (Homo sapiens), sequence (Q9UQ88 whole entry): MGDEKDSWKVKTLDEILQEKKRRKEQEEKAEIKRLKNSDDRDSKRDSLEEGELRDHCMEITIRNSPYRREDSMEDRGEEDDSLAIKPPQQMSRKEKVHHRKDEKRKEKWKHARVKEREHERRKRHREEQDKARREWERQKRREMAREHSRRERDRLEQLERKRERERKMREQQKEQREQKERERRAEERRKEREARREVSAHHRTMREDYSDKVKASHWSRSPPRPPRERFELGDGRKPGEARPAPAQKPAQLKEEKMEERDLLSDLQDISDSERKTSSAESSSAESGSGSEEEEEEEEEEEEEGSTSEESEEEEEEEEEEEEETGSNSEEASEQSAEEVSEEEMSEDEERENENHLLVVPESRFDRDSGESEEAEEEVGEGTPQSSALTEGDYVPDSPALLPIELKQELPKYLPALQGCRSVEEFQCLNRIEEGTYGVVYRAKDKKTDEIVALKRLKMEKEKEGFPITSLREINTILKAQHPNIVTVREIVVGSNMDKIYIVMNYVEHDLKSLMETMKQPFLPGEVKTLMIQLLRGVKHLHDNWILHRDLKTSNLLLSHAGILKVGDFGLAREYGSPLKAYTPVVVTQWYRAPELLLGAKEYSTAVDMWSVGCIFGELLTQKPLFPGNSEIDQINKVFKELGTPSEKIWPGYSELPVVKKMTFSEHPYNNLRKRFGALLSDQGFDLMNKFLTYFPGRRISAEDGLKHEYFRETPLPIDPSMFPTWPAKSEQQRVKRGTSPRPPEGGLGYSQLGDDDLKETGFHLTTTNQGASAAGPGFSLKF
Serine/threonine-protein kinase Nek1 (Homo sapiens), sequence (Q96PY6 whole entry): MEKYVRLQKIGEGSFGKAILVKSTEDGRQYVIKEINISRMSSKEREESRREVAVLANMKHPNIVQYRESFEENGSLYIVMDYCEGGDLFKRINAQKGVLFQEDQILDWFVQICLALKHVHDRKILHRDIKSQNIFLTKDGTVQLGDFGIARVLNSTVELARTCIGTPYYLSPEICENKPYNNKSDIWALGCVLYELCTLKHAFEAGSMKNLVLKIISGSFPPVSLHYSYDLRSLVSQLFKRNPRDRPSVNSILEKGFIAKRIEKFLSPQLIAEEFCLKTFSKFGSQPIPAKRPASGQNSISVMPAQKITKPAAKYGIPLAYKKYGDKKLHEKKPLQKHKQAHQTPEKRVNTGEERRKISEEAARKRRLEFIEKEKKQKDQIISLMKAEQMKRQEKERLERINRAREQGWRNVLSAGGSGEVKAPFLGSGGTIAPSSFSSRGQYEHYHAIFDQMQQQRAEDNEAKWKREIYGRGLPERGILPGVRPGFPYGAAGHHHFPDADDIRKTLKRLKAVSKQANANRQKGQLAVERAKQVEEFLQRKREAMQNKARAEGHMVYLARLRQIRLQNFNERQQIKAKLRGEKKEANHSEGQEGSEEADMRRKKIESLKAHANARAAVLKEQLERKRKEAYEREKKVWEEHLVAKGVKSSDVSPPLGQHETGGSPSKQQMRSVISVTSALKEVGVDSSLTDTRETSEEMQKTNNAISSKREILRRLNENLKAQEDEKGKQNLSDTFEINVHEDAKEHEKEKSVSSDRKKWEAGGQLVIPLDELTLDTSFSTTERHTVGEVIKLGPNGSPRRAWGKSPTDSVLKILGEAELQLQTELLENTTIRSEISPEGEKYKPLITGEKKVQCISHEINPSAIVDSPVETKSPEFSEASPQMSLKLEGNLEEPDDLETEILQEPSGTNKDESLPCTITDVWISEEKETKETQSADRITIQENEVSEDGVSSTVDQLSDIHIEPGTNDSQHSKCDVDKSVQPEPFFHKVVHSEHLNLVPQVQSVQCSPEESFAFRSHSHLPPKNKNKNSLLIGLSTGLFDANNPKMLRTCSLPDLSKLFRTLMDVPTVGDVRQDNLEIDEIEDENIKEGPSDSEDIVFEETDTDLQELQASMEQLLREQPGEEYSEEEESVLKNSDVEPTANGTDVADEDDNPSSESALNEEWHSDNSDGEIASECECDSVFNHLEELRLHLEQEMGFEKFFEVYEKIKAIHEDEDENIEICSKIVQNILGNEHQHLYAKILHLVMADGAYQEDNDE
3-phosphoinositide-dependent protein kinase 1 (Homo sapiens), sequence (O15530 whole entry): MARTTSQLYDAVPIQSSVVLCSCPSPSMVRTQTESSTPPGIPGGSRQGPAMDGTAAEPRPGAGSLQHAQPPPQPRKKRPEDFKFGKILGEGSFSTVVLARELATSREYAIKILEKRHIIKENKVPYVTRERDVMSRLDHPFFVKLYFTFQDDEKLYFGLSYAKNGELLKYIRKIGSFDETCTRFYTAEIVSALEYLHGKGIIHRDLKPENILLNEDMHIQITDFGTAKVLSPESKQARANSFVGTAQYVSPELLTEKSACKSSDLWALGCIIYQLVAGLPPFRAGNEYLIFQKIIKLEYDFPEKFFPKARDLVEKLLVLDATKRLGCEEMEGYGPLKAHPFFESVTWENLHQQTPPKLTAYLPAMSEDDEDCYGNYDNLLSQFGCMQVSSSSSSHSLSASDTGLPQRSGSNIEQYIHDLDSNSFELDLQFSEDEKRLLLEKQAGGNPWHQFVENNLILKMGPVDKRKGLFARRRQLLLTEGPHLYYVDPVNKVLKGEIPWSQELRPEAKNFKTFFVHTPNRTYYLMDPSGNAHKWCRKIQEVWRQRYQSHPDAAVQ
Cyclin-dependent kinase 7 (Homo sapiens), sequence (P50613 whole entry): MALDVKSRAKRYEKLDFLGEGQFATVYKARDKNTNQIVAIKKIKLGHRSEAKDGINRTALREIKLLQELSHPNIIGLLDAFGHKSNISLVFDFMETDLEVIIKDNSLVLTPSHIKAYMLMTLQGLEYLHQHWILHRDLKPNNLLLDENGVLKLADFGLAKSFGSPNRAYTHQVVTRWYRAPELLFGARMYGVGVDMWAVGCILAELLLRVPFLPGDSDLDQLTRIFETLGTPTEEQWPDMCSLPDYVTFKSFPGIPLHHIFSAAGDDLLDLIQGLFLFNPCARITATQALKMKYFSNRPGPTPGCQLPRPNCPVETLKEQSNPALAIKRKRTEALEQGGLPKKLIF

CS(=O)(=O)N1CCCC(NC(=O)[C@H](CCC2CCCCC2)NC(=O)c2ccc(CNc3ncnc4c3nnn4-c3ccccc3)cc2)C1 (some centres undefined) [SR-301]
residual activity [1]: 51% | residual activity [2]: 100% | residual activity [3]: 92% | residual activity [4]: 88% | residual activity [5]: 96% | residual activity [6]: 100% | residual activity [7]: 100% | residual activity [8]: 100% | residual activity [9]: 59% | residual activity [10]: 95% | residual activity [11]: 99% | residual activity [12]: 96% | residual activity [13]: 87% | residual activity [14]: 92% | residual activity [15]: 100% | residual activity [16]: 88% | residual activity [17]: 88% | residual activity [18]: 87%

CS(=O)(=O)N1CCCC(NC(=O)[C@H](CCC2CCCCC2)NC(=O)c2ccc(CNC(=O)c3cnc4ccccn34)cc2)C1 (some centres undefined) [SR-302]
residual activity [1]: 68% | inhibition [19]: 20.1% | inhibition [20]: 18.2% | inhibition [21]: -2.24% | inhibition [22]: 32% | inhibition [23]: 16.3% | residual activity [3]: 100% | inhibition [24]: 12.2% | residual activity [4]: 84% | inhibition [25]: 6.47% | inhibition [26]: 20.3% | inhibition [27]: 45.3% | inhibition [28]: -8.61% | inhibition [29]: 2.38% | residual activity [5]: 100% | residual activity [6]: 100% | inhibition [30]: -7.56% | residual activity [7]: 99% | inhibition [31]: 15.8% | residual activity [9]: 30% | inhibition [32]: 18.9% | residual activity [11]: 100% | inhibition [33]: 23.5% | inhibition (Rattus norvegicus): 13.2% | inhibition [34]: 20.6% | residual activity [12]: 100% | residual activity [13]: 100% | inhibition [35]: 3.1% | inhibition [36]: 7.22% | residual activity [14]: 84% | inhibition [37]: 11.5% | inhibition [38]: 5.25% | residual activity [15]: 92% | inhibition [39]: 10.9% | inhibition [40]: 11.3% | inhibition [41]: 8.18% | residual activity [17]: 100% | inhibition [42]: 3% | inhibition [43]: 3.62% | residual activity [18]: 100% | IC50 [44]: > 25 µM
